We go through five compounds from DBAASP.

Converted amounts (≈) assume the structure as drawn. “And” between values parts separate entries of the source, which are not always exact repeats. Equal values may be shown once.

Common to all, as to test: ≥ marks a high value that may be exact or a test limit, other limits are often not marked, values filed in µg/mL are converted to µM
Assay [1] has as its system Streptococcus sanguinis.
In assay [2] the test system is Staphylococcus aureus.
Assay [3] has as its system Escherichia coli.
The test system of assay [4] is Pseudomonas aeruginosa.
Assay [5] deals with Pseudomonas aeruginosa 1.
For assay [6], the system named is Escherichia coli 1.
In assay [7] the test system is Microsporum canis.
Assay [8] relates to Staphylococcus aureus NCTC 10788.
Assay [9] concerns Staphylococcus aureus NCTC 12493.
Assay [10] has as its system Pseudomonas aeruginosa ATCC 27853.
Assay [11] concerns Trichophyton mentagrophytes.
For assay [12], the system named is Proteus mirabilis.
Assay [13] relates to Staphylococcus pseudintermedius MW767056.
The test system of assay [14] is Staphylococcus simulans.
Assay [15] concerns Staphylococcus haemolyticus.
Assay [16] concerns Escherichia coli NCTC 10418.
The subject of assay [17] is Microsporum canis MW768151.
Assay [18] relates to Staphylococcus cohnii MW767053.
Assay [19] concerns Staphylococcus pseudintermedius.
Assay [20] has as its system Staphylococcus sciuri.
In assay [21] the test system is Staphylococcus aureus ATCC 43300.
Assay [22] has as its system Escherichia coli C600.
Assay [23] deals with Enterococcus faecalis ATCC 29212.
For assay [24], the system named is Escherichia coli 1057.
Assay [25] concerns Escherichia coli 214.
Assay [26] concerns Escherichia coli BL21(DE3).
The subject of assay [27] is Staphylococcus aureus ATCC 12600.
Assay [28] relates to Escherichia coli ATCC 11775.
In assay [29] the test system is Micrococcus luteus ATCC 49732.
In assay [30] the test system is Candida albicans ATCC 14053.

Consider `NC(=O)[C@H](Cc1ccccc1)NC(=O)[C@H](Cc1ccccc1)NC(=O)[C@H](Cc1ccccc1)NC(=O)[C@H](Cc1ccccc1)NC(=O)[C@H](Cc1ccccc1)NC(=O)[C@H](Cc1ccccc1)NC(=O)[C@H](Cc1ccccc1)NC(=O)[C@@H](N)Cc1ccccc1` [FFFFFFFF], for which the minimal inhibitory concentration (MIC) in [1] came to 7.1 µM (≈ 8.48 µg/mL); in assay [2], 5.8 µM (≈ 6.92 µg/mL).
Turning to `CC[C@H](C)[C@H](NC(=O)[C@@H](NC(=O)[C@@H]1CCCN1C(=O)[C@H](CO)NC(=O)[C@@H]1CSSC[C@H](NC(=O)[C@H](CCCCN)NC(=O)[C@H](CCCCN)NC(=O)CNC(=O)CNC(=O)CNC(=O)CN)C(=O)N[C@@H](CCCCN)C(=O)N[C@@H](CCCCN)C(=O)N[C@@H](CC(C)C)C(=O)N[C@@H](Cc2ccccc2)C(=O)N[C@@H](CCCCN)C(=O)N[C@@H](CCCCN)C(=O)N1)C(C)C)C(=O)N1CCC[C@H]1C(=O)N[C@@H](CC(C)C)C(=O)N[C@@H](CC(C)C)C(=O)N[C@@H](Cc1cnc[nH]1)C(=O)N[C@@H](CC(C)C)C(=O)NCC(=O)O` [GGGGKKCKKLFKKCSPVIPLLHLG], the MIC in [3] was determined as 1.3 µM (≈ 3.26 µg/mL); in [4], 16 µM (≈ 40.1 µg/mL); in [5], 27 µM (≈ 67.7 µg/mL); in assay [6] it was 2.7 µM (≈ 6.77 µg/mL).
For `CC[C@H](C)[C@H](NC(=O)CNC(=O)[C@H](CO)NC(=O)[C@H](CC(C)C)NC(=O)[C@H](CC(C)C)NC(=O)CN)C(=O)N[C@@H](CC(C)C)C(=O)NCC(=O)N[C@@H](C)C(=O)NCC(=O)N[C@@H](CCCCN)C(=O)N[C@@H](CCCCN)C(=O)N[C@H](C(=O)N[C@H](C(=O)N[C@@H](Cc1ccccc1)C(N)=O)C(C)C)[C@@H](C)CC` [GLLSGILGAGKKIVF], the minimal inhibitory concentration (MIC) in assay [7] is 1.92 µM (≈ 2.83 µg/mL); in assay [8], 2 µM (≈ 2.94 µg/mL); in assay [9] it was 4 µM (≈ 5.89 µg/mL); in [10] it was 2 µM (≈ 2.94 µg/mL); in [11] it was 1.36 µM (≈ 2 µg/mL); in assay [12], at least 43.5 µM. The minimum inhibitory concentration (MIC) in [13] was at least 174 µM; in [14], 10.9 µM (≈ 16 µg/mL); in assay [15] it was at least 43.5 µM; in assay [16] it was 7.99 µM (≈ 11.8 µg/mL); in assay [17], 0.679 µM (≈ 0.999 µg/mL); in assay [18], at least 86.9 µM. The MIC in [2] is 0.998 µM (≈ 1.47 µg/mL); in [19], at least 61.5 µM; in [20], at least 174 µM; in assay [21], 0.998 µM (≈ 1.47 µg/mL).
For the compound `CC(C)C[C@H](NC(=O)[C@H](CCCN=C(N)N)NC(=O)[C@@H](N)CCCN=C(N)N)C(=O)N[C@@H](CCCN=C(N)N)C(=O)N1CCC[C@H]1C(=O)N[C@@H](CCCN=C(N)N)C(=O)N[C@@H](CCCN=C(N)N)C(=O)N1CCC[C@H]1C(=O)N[C@@H](CCCN=C(N)N)C(=O)N[C@@H](CC(C)C)C(=O)N1CCC[C@H]1C(=O)N[C@@H](CCCN=C(N)N)C(=O)N1CCC[C@H]1C(=O)N[C@@H](CCCN=C(N)N)C(=O)N1CCC[C@H]1C(=O)N[C@@H](CCCN=C(N)N)C(=O)N1CCC[C@H]1C(=O)N[C@@H](CCCN=C(N)N)C(=O)N1CCC[C@H]1C(=O)N[C@@H](CCCN=C(N)N)C(=O)N1CCC[C@H]1C(=O)N[C@@H](CCCN=C(N)N)C(=O)O` [RRLRPRRPRLPRPRPRPRPRPR], the MIC in assay [22] is 2 µM and 4 µM; in assay [23] it was over 32 µM; in assay [24], 10 µM and 8 µM; in assay [25], at least 64 µM; in assay [26] it was 8 µM (≈ 23.2 µg/mL).
For `CC(C)C[C@H](NC(=O)[C@H](Cc1cnc[nH]1)NC(=O)[C@@H](N)C(C)C)C(=O)N1CCC[C@H]1C(=O)N1CCC[C@H]1C(=O)O` [VHLPP], the minimal inhibitory concentration (MIC) in assay [27], in assay [28], in assay [29] and in [30] was at least 479 µM throughout.

For orientation: MIC means the least concentration at which growth counts as inhibited. A lower MIC goes with a more susceptible organism.
